Laboratory results taken from patent publication US8962843B2, “1,3,4-oxadiazole and 1,3,4-thiadiazole beta-lactamase inhibitors” (priority 2012, dated 2015).
Counter-ions that a name gives are not always drawn.

Experiments:
[1] = test system: bacterial strains that express the class D cephalosporinase OXA-15; assay: Standard BLI potentiation MIC / synergy MIC assays, strains expressing OXA-15; assay type: cell-based, E. coli; settings: in combination with a β-lactam; comparator Avibactam (CCC)
Method: (§1) The experimental protocol was performed according to Clinical and Laboratory Standards Institute (CLSI) guidelines with modifications as described below (CLSI guidelines can be derived from the CLSI document M07-A9 published in January 2012: “Methods for Dilution Antimicrobial Susceptibility Tests for Bacteria That Grow Aerobically; Approved Standard-Ninth Edition”).
(§2) To prepare for MIC testing, frozen glycerol stocks of clinical isolates (Klebsiella pneumoniae, Eschericia coli, Enterobacter spp, Citrobacter spp, or Pseudomonas aeruginosa) were used to streak for isolated colonies on rich, non-selective, tryptic soy agar containing 5% sheep's blood (TSAB). Frozen glycerol stocks of laboratory engineered, isogenic E. coli strains, which contain cloned β-lactamase expressing plasmids were used to streak for isolated colonies on rich, selective LB agar supplemented with 25 μg/mL tetracycline to maintain the plasmid. All strains were incubated at 37° C. for 18-24 hrs.
(§3) On the day of testing, primary cultures were started by scraping off 5-10 colonies from the TSAB plates containing clinical strains or the tetracycline supplemented LB plates containing engineered strains. The clinical strain material was suspended in ˜5 mL of cation adjusted Mueller Hinton Broth (CAMHB) in 14 mL culture tubes. The engineered strain material was suspended in CAMHB (supplemented with 25 μg/mL tetracycline) in 14 mL culture tubes. All strains were incubated at 37° C. with aeration (200 rpm) for ˜2 hrs until the optical density at 600 nm (OD600) was >0.1.
(§4) The two compound components of the assay were each diluted in CAMHB and added to the 96-well broth microdilution assay plates. 50 μL of the β-lactam was added to each well of the assay plate in 2-fold dilutions with final concentrations ranging from 128 to 0.13 μg/mL. 25 μL of the BLI compound was added to all wells in the broth microdilution plates at a final concentration of 4 μg/mL. Inoculum cultures were prepared by standardizing the primary cultures to OD600=0.1 and then adding 20 μL of the adjusted primary culture per 1 mL CAMHB for clinical strains or CAMHB (supplemented with tetracycline at 100 μg/mL) for engineered strains, so that the final inoculum density was ˜10^5 colony forming units per milliliter. Diluted inoculum cultures were used to inoculate 25 μl, per well in 96-well broth microdilution assay plates. The final volume of each well was 100 μL and contained a β-lactam at different concentrations, a BLlcompound at 4 μg/mL concentration, the bacterial culture at an OD600 of approximately 0.001 and when necessary tetracycline at 25 μg/mL.
(§5) Plates were incubated for 18-20 hours at 37° C. with aeration (200 rpm). Following incubation, growth was confirmed visually placing plates over a viewing apparatus (stand with a mirror underneath) and then OD600 was measured using a SpectraMax 340PC384 plate reader (Molecular Devices, Sunnyvale, Calif.). Growth was defined as turbidity that could be detected with the naked eye or achieving minimum OD600 of 0.1. MIC values were defined as the lowest concentration producing no visible turbidity.
(§6) The synergy MIC (sMIC) assay determines the concentration of the BLI required to potentiate the activity of a fixed concentration of a β-lactam antibiotic against β-lactamase producing bacterial strains. The experimental protocol was performed according to Clinical and Laboratory Standards Institute (CLSI) guidelines with modifications as described below (CLSI guidelines can be derived from the CLSI document M07-A9 published in January 2012: “Methods for Dilution Antimicrobial Susceptibility Tests for Bacteria That Grow Aerobically; Approved Standard-Ninth Edition”). […]

[2] = test system: bacterial strains that express KPC β-lactamases; assay: Standard BLI potentiation MIC / synergy MIC assays, strains expressing KPC β-lactamases; assay type: cell-based; settings: in combination with a β-lactam; comparator Avibactam
Method: as §1, §2, §3, §4, §5, §6

SMILES | activity against bacterial strains that express the class D cephalosporinase OXA-15, compared with Avibactam [1] | activity and/or spectrum of activity against bacterial strains that express KPC β-lactamases, compared with Avibactam [2]
N=C(N)NCCc1nnc([C@@H]2CC[C@@H]3CN2C(=O)N3OS(=O)(=O)O)s1 [Compound 794, (2S,5R)-2-(5-(2-guanidinoethyl)-1,3,4-thiadiazol-2-yl)-7-oxo-1,6-diazabicyclo[3.2.1]octan-6-yl hydrogen sulfate] | more active than Avibactam | more active than Avibactam for at least one, bacterial strain that expresses KPC β-lactamase and/or show a better spectrum of activity
NCc1nnc([C@@H]2CC[C@@H]3CN2C(=O)N3OS(=O)(=O)O)o1 [Compound 702, (2S,5R)-2-(5-(aminomethyl)-1,3,4-oxadiazol-2-yl)-7-oxo-1,6-diazabicyclo[3.2.1]octan-6-yl hydrogen sulfate] | more active than Avibactam | more active than Avibactam for at least one, bacterial strain that expresses KPC β-lactamase and/or show a better spectrum of activity
N[C@H]1C[C@H](CCc2nnc([C@@H]3CC[C@@H]4CN3C(=O)N4OS(=O)(=O)O)o2)C1 [Compound 753, (2S,5R)-2-(5-(2-((1r,3R)-3-aminocyclobutyl)ethyl)-1,3,4-oxadiazol-2-yl)-7-oxo-1,6-diazabicyclo[3.2.1]octan-6-yl hydrogen sulfate] | more active than Avibactam | more active than Avibactam for at least one, bacterial strain that expresses KPC β-lactamase and/or show a better spectrum of activity
O=C1N2C[C@@H](CC[C@H]2c2nnc(CCNC3CNC3)o2)N1OS(=O)(=O)O [Compound 745, (2S,5R)-2-(5-(2-(azetidin-3-ylamino)ethyl)-1,3,4-oxadiazol-2-yl)-7-oxo-1,6-diazabicyclo[3.2.1]octan-6-yl hydrogen sulfate] | more active than Avibactam | more active than Avibactam for at least one, bacterial strain that expresses KPC β-lactamase and/or show a better spectrum of activity
N[C@H]1C[C@@H](Cc2nnc([C@@H]3CC[C@@H]4CN3C(=O)N4OS(=O)(=O)O)o2)C1 [Compound 728, (2S,5R)-2-(5-(((1s,3R)-3-aminocyclobutyl)methyl)-1,3,4-oxadiazol-2-yl)-7-oxo-1,6-diazabicyclo[3.2.1]octan-6-yl hydrogen sulfate] | more active than Avibactam | more active than Avibactam for at least one, bacterial strain that expresses KPC β-lactamase and/or show a better spectrum of activity
N[C@H]1C[C@H](c2nnc([C@@H]3CC[C@@H]4CN3C(=O)N4OS(=O)(=O)O)s2)C1 [Compound 783, (2S,5R)-2-(5-((1r,3S)-3-aminocyclobutyl)-1,3,4-thiadiazol-2-yl)-7-oxo-1,6-diazabicyclo[3.2.1]octan-6-yl hydrogen sulfate] | more active than Avibactam | more active than Avibactam for at least one, bacterial strain that expresses KPC β-lactamase and/or show a better spectrum of activity
N=C(N)NC1CC(Cc2nnc([C@@H]3CC[C@@H]4CN3C(=O)N4OS(=O)(=O)O)o2)C1 (stereo partly drawn) [Compound 752, (2S,5R)-2-(5-((3-guanidinocyclobutyl)methyl)-1,3,4-oxadiazol-2-yl)-7-oxo-1,6-diazabicyclo[3.2.1]octan-6-yl hydrogen sulfate] | more active than Avibactam | more active than Avibactam for at least one, bacterial strain that expresses KPC β-lactamase and/or show a better spectrum of activity
N[C@H]1CN[C@H](c2nnc([C@@H]3CC[C@@H]4CN3C(=O)N4OS(=O)(=O)O)o2)C1 [Compound 762, (2S,5R)-2-(5-((2S,4R)-4-aminopyrrolidin-2-yl)-1,3,4-oxadiazol-2-yl)-7-oxo-1,6-diazabicyclo[3.2.1]octan-6-yl hydrogen sulfate] | more active than Avibactam | more active than Avibactam for at least one, bacterial strain that expresses KPC β-lactamase and/or show a better spectrum of activity
NC1(Cc2nnc([C@@H]3CC[C@@H]4CN3C(=O)N4OS(=O)(=O)O)o2)CC1 [Compound 724, (2S,5R)-2-(5-((1-aminocyclopropyl)methyl)-1,3,4-oxadiazol-2-yl)-7-oxo-1,6-diazabicyclo[3.2.1]octan-6-yl hydrogen sulfate] | more active than Avibactam | more active than Avibactam for at least one, bacterial strain that expresses KPC β-lactamase and/or show a better spectrum of activity
N[C@H]1C[C@H](Cc2nnc([C@@H]3CC[C@@H]4CN3C(=O)N4OS(=O)(=O)O)o2)C1 [Compound 751, (2S,5R)-2-(5-(((1r,3S)-3-aminocyclobutyl)methyl)-1,3,4-oxadiazol-2-yl)-7-oxo-1,6-diazabicyclo[3.2.1]octan-6-yl hydrogen sulfate] | more active than Avibactam | more active than Avibactam for at least one, bacterial strain that expresses KPC β-lactamase and/or show a better spectrum of activity
O=C1N2C[C@@H](CC[C@H]2c2nnc(CCC3CNC3)o2)N1OS(=O)(=O)O [Compound 742, (2S,5R)-2-(5-(2-(azetidin-3-ybethyl)-1,3,4-oxadiazol-2-yl)-7-oxo-1,6-diazabicyclo[3.2.1]octan-6-yl hydrogen sulfate] | more active than Avibactam | more active than Avibactam for at least one, bacterial strain that expresses KPC β-lactamase and/or show a better spectrum of activity
O=C1N2C[C@@H](CC[C@H]2c2nnc(CCNC3CCNCC3)o2)N1OS(=O)(=O)O [Compound 770, (2S,5R)-7-oxo-2-(5-(2-(piperidin-4-ylamino)ethyl)-1,3,4-oxadiazol-2-yl)-1,6-diazabicyclo[3.2.1]octan-6-yl hydrogen sulfate] | more active than Avibactam | more active than Avibactam for at least one, bacterial strain that expresses KPC β-lactamase and/or show a better spectrum of activity
O=C1N2C[C@@H](CC[C@H]2c2nnc([C@H]3CNCCN3)o2)N1OS(=O)(=O)O [Compound 779, (2S,5R)-7-oxo-2-(5((R)-piperazin-2-yl)-1,3,4-oxadiazol-2-yl)-1,6-diazabicyclo[3.2.1]octan-6-yl hydrogen sulfate] | more active than Avibactam | more active than Avibactam for at least one, bacterial strain that expresses KPC β-lactamase and/or show a better spectrum of activity
NC1CCN(CCc2nnc([C@@H]3CC[C@@H]4CN3C(=O)N4OS(=O)(=O)O)o2)CC1 [Compound 775, (2S,5R)-2-(5-(2-(4-aminopiperidin-1-ybethyl)-1,3,4-oxadiazol-2-yl)-7-oxo-1,6-diazabicyclo[3.2.1]octan-6-yl hydrogen sulfate] | – | more active than Avibactam for at least one, bacterial strain that expresses KPC β-lactamase and/or show a better spectrum of activity
